ChEMBL document CHEMBL3885861, “Open TG-GATES”

Species on record: Rattus norvegicus
Assay: Open TG-GATES - Regimen: Single
Assay type: toxicity, organism-based, Sprague-Dawley
Set-up: regimen Single, gender Male, age 6 weeks
Conditions: in vivo, po, 15 mg/kg, route gavage, dose level Low; for APTT / Bas / Eos / Fbg / Hb / Ht / Lym / MCH / MCHC / MCV / Mono / Neu / PT / Plat / RBC / Ret / WBC: tissue Blood; for KIDNEY_L / KIDNEY_R / KIDNEY_TOTAL: tissue Kidney; for LIVER: tissue Liver; for A/G / ALP / ALT / AST / BUN / CRE / Ca / Cl / DBIL / GLC / IP / K / LDH / Na / PL / RALB / TBIL / TC / TG / TP / gamma-GTP: tissue Plasma

CC1=C(CC(=O)O)c2cc(F)ccc2/C1=C\c1ccc([S+](C)[O-])cc1 (configuration not stated)
TERMINAL_BW (3 h): 200.6 g
APTT (3 h): 22.7 s
Bas (3 h): 0%
Eos (3 h): 1%
Fbg (3 h): 290.6 mg/dL
Hb (3 h): 13.4 g/dL
Ht (3 h): 40.8%
Lym (3 h): 74.8%
MCH (3 h): 21.4 pg
MCHC (3 h): 32.8%
MCV (3 h): 65.3 fL
Mono (3 h): 3%
Neu (3 h): 21%
PT (3 h): 14 s
Plat (3 h): 130.1 x10_4/uL
RBC (3 h): 625.6 x10_4/ul
Ret (3 h): 8.8%
WBC (3 h): 78.5 x10_2/uL
KIDNEY_L (3 h): 1 g
KIDNEY_R (3 h): 0.9 g
KIDNEY_TOTAL (3 h): 1.9 g
LIVER (3 h): 9.3 g
A/G (3 h): 0.9
ALP (3 h): 1384.2 IU/L
ALT (3 h): 40.4 IU/L
AST (3 h): 69.6 IU/L
BUN (3 h): 11 mg/dL
CRE (3 h): 0.2 mg/dL
Ca (3 h): 10.9 mg/dL
Cl (3 h): 105 meq/L
DBIL (3 h): 0.01 mg/dL
GLC (3 h): 173.2 mg/dL
IP (3 h): 8.4 mg/dL
K (3 h): 4 meq/L
LDH (3 h): 66.8 IU/L
Na (3 h): 140.8 meq/L
PL (3 h): 140.6 mg/dL
RALB (3 h): 2.6 g/dL
TBIL (3 h): 0.036 mg/dL
TC (3 h): 71.2 mg/dL
TG (3 h): 65.6 mg/dL
TP (3 h): 5.3 g/dL
gamma-GTP (3 h): 1 IU/L
TERMINAL_BW (6 h): 201 g
APTT (6 h): 16.5 s
Bas (6 h): 0%
Eos (6 h): 1%
Fbg (6 h): 279.2 mg/dL
Hb (6 h): 13.5 g/dL
Ht (6 h): 41.4%
Lym (6 h): 74%
MCH (6 h): 20.8 pg
MCHC (6 h): 32.6%
MCV (6 h): 63.7 fL
Mono (6 h): 2.4%
Neu (6 h): 22.4%
PT (6 h): 14.1 s
Plat (6 h): 115.6 x10_4/uL
RBC (6 h): 650.4 x10_4/ul
Ret (6 h): 8.1%
WBC (6 h): 70.2 x10_2/uL
KIDNEY_L (6 h): 0.9 g
KIDNEY_R (6 h): 0.9 g
KIDNEY_TOTAL (6 h): 1.7 g
LIVER (6 h): 8.2 g
A/G (6 h): 1
ALP (6 h): 1365.6 IU/L
ALT (6 h): 41.4 IU/L
AST (6 h): 72.4 IU/L
BUN (6 h): 9 mg/dL
CRE (6 h): 0.2 mg/dL
Ca (6 h): 10.8 mg/dL
Cl (6 h): 106.8 meq/L
DBIL (6 h): 0.006 mg/dL
GLC (6 h): 172.8 mg/dL
IP (6 h): 9.3 mg/dL
K (6 h): 4.3 meq/L
LDH (6 h): 73.2 IU/L
Na (6 h): 141.4 meq/L
PL (6 h): 137.6 mg/dL
RALB (6 h): 2.5 g/dL
TBIL (6 h): 0.03 mg/dL
TC (6 h): 78.6 mg/dL
TG (6 h): 40 mg/dL
TP (6 h): 5.2 g/dL
gamma-GTP (6 h): 1.4 IU/L
TERMINAL_BW (9 h): 198.6 g
APTT (9 h): 16.9 s
Bas (9 h): 0%
Eos (9 h): 0.8%
Fbg (9 h): 285.6 mg/dL
Hb (9 h): 13.2 g/dL
Ht (9 h): 40.7%
Lym (9 h): 81.4%
MCH (9 h): 21 pg
MCHC (9 h): 32.4%
MCV (9 h): 64.8 fL
Mono (9 h): 2%
Neu (9 h): 15.2%
PT (9 h): 14.2 s
Plat (9 h): 128.1 x10_4/uL
RBC (9 h): 627.6 x10_4/ul
Ret (9 h): 8.8%
WBC (9 h): 72.2 x10_2/uL
KIDNEY_L (9 h): 0.9 g
KIDNEY_R (9 h): 0.9 g
KIDNEY_TOTAL (9 h): 1.8 g
LIVER (9 h): 7.7 g
A/G (9 h): 0.9
ALP (9 h): 1238.2 IU/L
ALT (9 h): 43.4 IU/L
AST (9 h): 74.4 IU/L
BUN (9 h): 10.6 mg/dL
CRE (9 h): 0.2 mg/dL
Ca (9 h): 10.7 mg/dL
Cl (9 h): 108 meq/L
DBIL (9 h): 0.008 mg/dL
GLC (9 h): 173.6 mg/dL
IP (9 h): 9.9 mg/dL
K (9 h): 4.1 meq/L
LDH (9 h): 65.2 IU/L
Na (9 h): 142.2 meq/L
PL (9 h): 135.4 mg/dL
RALB (9 h): 2.5 g/dL
TBIL (9 h): 0.042 mg/dL
TC (9 h): 76.2 mg/dL
TG (9 h): 37.6 mg/dL
TP (9 h): 5.2 g/dL
gamma-GTP (9 h): 1 IU/L
TERMINAL_BW (24 h): 215 g
APTT (24 h): 22.5 s
Bas (24 h): 0%
Eos (24 h): 1%
Fbg (24 h): 310.4 mg/dL
Hb (24 h): 14 g/dL
Ht (24 h): 43.7%
Lym (24 h): 77.4%
MCH (24 h): 21 pg
MCHC (24 h): 32%
MCV (24 h): 65.8 fL
Mono (24 h): 2.2%
Neu (24 h): 19%
PT (24 h): 13.3 s
Plat (24 h): 125.4 x10_4/uL
RBC (24 h): 665.4 x10_4/ul
Ret (24 h): 7.7%
WBC (24 h): 81.5 x10_2/uL
KIDNEY_L (24 h): 0.9 g
KIDNEY_R (24 h): 0.9 g
KIDNEY_TOTAL (24 h): 1.8 g
LIVER (24 h): 10.4 g
A/G (24 h): 0.9
ALP (24 h): 1898.6 IU/L
ALT (24 h): 48 IU/L
AST (24 h): 70.2 IU/L
BUN (24 h): 15.4 mg/dL
CRE (24 h): 0.2 mg/dL
Ca (24 h): 11.2 mg/dL
Cl (24 h): 104.6 meq/L
DBIL (24 h): 0.01 mg/dL
GLC (24 h): 189.6 mg/dL
IP (24 h): 7.4 mg/dL
K (24 h): 4.2 meq/L
LDH (24 h): 90.8 IU/L
Na (24 h): 141 meq/L
PL (24 h): 176.4 mg/dL
RALB (24 h): 2.7 g/dL
TBIL (24 h): 0.014 mg/dL
TC (24 h): 95 mg/dL
TG (24 h): 134.8 mg/dL
TP (24 h): 5.7 g/dL
gamma-GTP (24 h): 1 IU/L
